Consider two compounds from patent US4521408A, “Antibiotics-859A and production thereof” (priority 1982, dated 1985).

What all share (type): cell-based
Assay [1] deals with Pseudomonas clinical isolate B145. In words: Comparative lethality in agar dilution test, isolate B145. On the procedure:
(§1) 859A2, carbenicillin, and gentamicin were compared in agar dilution, surface-inoculated assays at the minimum bactericidal concentration (MBC), and at 1/2 and 1/4 of the MBC, vs four clinical isolates of Pseudomonas.
(§2) Clinical isolates were supplied on nutrient agar-yeast extract slants. Strains B145 and B184 were reported as non-lactamase-containing strains whereas strains B126 and B189 contained lactamase.
(§3) A loopful of cells of each culture was transferred to 10 ml nutrient broth-yeast (NBY) extract and incubated for 16 hours at 37° C. on the shaker. The inocula were adjusted to O.D.=0.22 at 660 nm with NBY and further diluted with NBY to 1:250,000. One tenth (0.1) ml of the diluted cell suspension was added to plates containing 10 ml of Brain Heart Infusion Agar and spread uniformly over the surface with a sterile glass "hockey stick". Stock solutions of antibiotics at 10 mg/ml were added to 45° C. agar in appropriate amounts. […] After overnight incubation of plates at 37° C., a visual count of colonies was made.
(In general: In agar dilution, organisms are placed on agar that contains the substance at set levels.)

Assay [2] deals with Pseudomonas clinical isolate B184. As to the kind of experiment: Comparative lethality in agar dilution test, isolate B184. On the procedure: as §1, §2, §3
For assay [3], the system named is Pseudomonas clinical isolate B126. As to the kind of experiment: Comparative lethality in agar dilution test, isolate B126. On the procedure:
as §1, §2, §3

Assay [4] relates to Pseudomonas clinical isolate B189. In words: Comparative lethality in agar dilution test, isolate B189. On the procedure:
as §1, §2, §3

As to `CC1(C)S[C@@H]2[C@H](NC(=O)C(C(=O)O)c3ccccc3)C(=O)N2[C@H]1C(=O)O` (stereo partly drawn) [Carbenicillin, carbenicillin], the “# of Colonies” value amounted to 368 in assay [1] (15.7 μg/ml); 335 in assay [1] (31.3 μg/ml); 0 in assay [1] (62.5 μg/ml); 75 in assay [2] (15.7 μg/ml); 100 in assay [2] (31.3 μg/ml); 0 in assay [2] (62.5 μg/ml). Also, the “# of Colonies” value in assay [3] (125 μg/ml) turned out to be 68; in assay [3] (250 μg/ml), 28; in assay [3] (500 μg/ml), 0; in assay [4] (31.3 μg/ml) it was 333; in assay [4] (62.5 μg/ml), 263; in assay [4] (125 μg/ml) it was 0.
In the case of gentamicin, the “# of Colonies” value in assay [1] (12.5 μg/ml) stood at 233; in assay [1] (25 μg/ml), 121; in assay [1] (50 μg/ml) it was 0; in assay [2] (0.39 μg/ml), 79; in assay [2] (0.79 μg/ml) it was 19; in assay [2] (1.56 μg/ml) it was 0. Further, the “# of Colonies” value in assay [3] (0.39 μg/ml) amounted to 49; in assay [3] (0.78 μg/ml), 7; in assay [3] (1.56 μg/ml), 0; in assay [4] (0.78 μg/ml) it was 278; in assay [4] (1.56 μg/ml), 53; in assay [4] (3.12 μg/ml), 0.
